Test results published in ChEMBL document CHEMBL1201862, “PubChem BioAssay data set” (2004).
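Step 1: Grow cells in 96-well plates. Step 2: Expose to compound for 48 hours at 5 concentrations. Step 3: Interpolate endpoints linearly; if unreached, use highest concentration. GI50: concentration for 50% inhibition of growth.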 Activity calls are given as the source filed them. Rule as the data show it: active = GI50 up to about 1.1 µM and inactive = higher. Where a SMILES comes first, the peptide text is derived from it. [ ]: non-standard residue; d: D form. The star is where a group is joined. Chg = N[CH](C(=O)O)C1CCCCC1; Cbz = O=C(OCc1ccccc1)*; OBn = c1ccc(CO*)cc1

Key:
Assay in all cases: NCI tumour cell line growth inhibition, 48 h
[1] = system: A498
[2] = system: COLO 205
[3] = system: HOP-92
[4] = system: IGROV-1
[5] = system: K562
[6] = system: MOLT-4
[7] = system: NCI/ADR-RES
[8] = system: OVCAR-5
[9] = system: OVCAR-8
[10] = system: RPMI-8226
[11] = system: RXF 393
[12] = system: SF-295
[13] = system: SF-539
[14] = system: SN12C
[15] = system: SNB-75
[16] = system: SR
[17] = system: T47D
[18] = system: TK-10
[19] = system: HCC 2998
[20] = system: NCI-H23

Row | SMILES | GI50 [1] | GI50 [2] | GI50 [3] | GI50 [4] | GI50 [5] | GI50 [6] | GI50 [7] | GI50 [8] | GI50 [9] | GI50 [10] | GI50 [11] | GI50 [12] | GI50 [13] | GI50 [14] | GI50 [15] | GI50 [16] | GI50 [17] | GI50 [18] | GI50 [19] | GI50 [20]
1 | CCOP(=O)(O)CN1CCNCCN(CP(=O)(O)OCC)CCNCC1 | > 100 µM (inactive) | 91.4 µM (inactive) | > 100 µM (inactive) | > 100 µM (inactive) | > 100 µM (inactive) | > 100 µM (inactive) | > 100 µM (inactive) | > 100 µM (inactive) | > 100 µM (inactive) | > 100 µM (inactive) | > 100 µM (inactive) | > 100 µM (inactive) | > 100 µM (inactive) | > 100 µM (inactive) | > 100 µM (inactive) | > 10 µM (inactive) | > 100 µM (inactive) | > 100 µM (inactive) |  | 
2 | CN(C)c1ccc(/C=C(\C#N)C(N)=C(C#N)C#N)cc1 | > 100 µM (inactive) | > 100 µM (inactive) | > 100 µM (inactive) | > 100 µM (inactive) | > 100 µM (inactive) |  | > 100 µM (inactive) | > 100 µM (inactive) | > 100 µM (inactive) |  | > 100 µM (inactive) | > 100 µM (inactive) | > 100 µM (inactive) | > 100 µM (inactive) |  | > 100 µM (inactive) | > 100 µM (inactive) | > 100 µM (inactive) | > 100 µM (inactive) | > 100 µM (inactive)
3 | COC(=O)C(NC(=O)C(CC(=O)OCc1ccccc1)NC(=O)OCc1ccccc1)C1CCCCC1 (centres undefined) (Cbz-Asp(OBn)-[Chg]-OMe; configuration not given here) |  | > 100 µM (inactive) | 21.7 µM (inactive) | > 100 µM (inactive) | > 100 µM (inactive) | 38.3 µM (inactive) | > 100 µM (inactive) | > 100 µM (inactive) | > 100 µM (inactive) | 48.2 µM (inactive) | > 100 µM (inactive) | 67.3 µM (inactive) | 59.7 µM (inactive) | > 100 µM (inactive) | 62.8 µM (inactive) | 59 µM (inactive) | 48 µM (inactive) | > 100 µM (inactive) | > 100 µM (inactive) | > 100 µM (inactive)
4 | O=C1CC2(CCN(CC3COc4ccccc4O3)CC2)C(=O)N1N1CCCCCC1 (centres undefined) | > 100 µM (inactive) | 35.9 µM (inactive) | 87.3 µM (inactive) | > 100 µM (inactive) | 15.6 µM (inactive) | 20.7 µM (inactive) | 52.7 µM (inactive) | 48.5 µM (inactive) | 64.6 µM (inactive) | 59.8 µM (inactive) | 64.6 µM (inactive) | 71.1 µM (inactive) | > 100 µM (inactive) | > 100 µM (inactive) | 76.4 µM (inactive) | > 100 µM (inactive) | 33.7 µM (inactive) | > 100 µM (inactive) |  | 16.9 µM (inactive)
5 | COC(=O)[C@@]1(Cc2ccc(O)cc2)C[C@@H]2Cc3ccccc3N2N1 | 27.9 µM (inactive) | 79.1 µM (inactive) | 43.6 µM (inactive) | 78 µM (inactive) |  | 4.8 µM (inactive) | 31.8 µM (inactive) | > 100 µM (inactive) | 71.8 µM (inactive) | 30.5 µM (inactive) |  | 49.1 µM (inactive) | > 100 µM (inactive) | 71 µM (inactive) |  | 31.3 µM (inactive) | 23.5 µM (inactive) | > 100 µM (inactive) |  | 56.9 µM (inactive)
6 | CC1(C)CCC(C)(C)C1C(=O)NC(O)C(=O)O (centres undefined) | > 100 µM (inactive) | > 100 µM (inactive) | 2.43 µM (inactive) | > 100 µM (inactive) | > 100 µM (inactive) | > 100 µM (inactive) | > 100 µM (inactive) | > 100 µM (inactive) | > 100 µM (inactive) | > 100 µM (inactive) |  |  | > 100 µM (inactive) | > 100 µM (inactive) | > 100 µM (inactive) | > 100 µM (inactive) | > 100 µM (inactive) | > 100 µM (inactive) | > 100 µM (inactive) | > 10 µM (inactive)
7 | O=C1CC(Sc2nc3ccc(I)cc3c(=O)n2Cc2ccccc2)C(=O)NN1 (centres undefined) | 12.7 µM (inactive) | 19.1 µM (inactive) | 17.7 µM (inactive) | 11.8 µM (inactive) | 11.6 µM (inactive) | 14.3 µM (inactive) | 20.2 µM (inactive) | 17.9 µM (inactive) | 14.4 µM (inactive) | 17 µM (inactive) |  | 18.2 µM (inactive) | 18.2 µM (inactive) | 14.5 µM (inactive) | 11.7 µM (inactive) | 2.73 µM (inactive) | 15.2 µM (inactive) | 16.8 µM (inactive) | 17.6 µM (inactive) | 15.7 µM (inactive)
8 | O=C(OCc1ccccc1)N1CCCc2c(n(S(=O)(=O)c3ccccc3)c3ccccc23)C1 | > 100 µM (inactive) | > 100 µM (inactive) | > 100 µM (inactive) | > 100 µM (inactive) | > 100 µM (inactive) | > 100 µM (inactive) | > 100 µM (inactive) | > 100 µM (inactive) | > 100 µM (inactive) | > 100 µM (inactive) | 53.8 µM (inactive) | 36.6 µM (inactive) | > 100 µM (inactive) | > 100 µM (inactive) |  | 49.1 µM (inactive) | 14.2 µM (inactive) | > 100 µM (inactive) |  | > 100 µM (inactive)
9 | Cc1nc2ccccc2c(=O)n1/N=C/c1ccc(N(C)C)cc1 | > 100 µM (inactive) | > 100 µM (inactive) | 48.5 µM (inactive) | > 100 µM (inactive) |  | > 100 µM (inactive) | 86.9 µM (inactive) | > 100 µM (inactive) | 53.5 µM (inactive) | 4.24 µM (inactive) |  | 43.6 µM (inactive) | > 100 µM (inactive) | > 100 µM (inactive) | 15.4 µM (inactive) | > 100 µM (inactive) | > 100 µM (inactive) | > 100 µM (inactive) | > 100 µM (inactive) | 78 µM (inactive)
10 | Cn1c2ccc(C3=NCCN3)cc2c2cc(C3=NCCN3)ccc21 | > 100 µM (inactive) | 0.724 µM (active) | 13.4 µM (inactive) | 24.5 µM (inactive) | 26.4 µM (inactive) | 0.637 µM (active) | > 100 µM (inactive) | 38.4 µM (inactive) | 28.9 µM (inactive) | 24.6 µM (inactive) | 34.3 µM (inactive) | 42.8 µM (inactive) | 29.4 µM (inactive) | 6.31 µM (inactive) | 78.5 µM (inactive) | 18.2 µM (inactive) | 7.89 µM (inactive) | 60.3 µM (inactive) |  | 4.16 µM (inactive)
11 | C/C(=N\NC(=O)c1ccncc1)c1ccccc1Cl | > 100 µM (inactive) | > 100 µM (inactive) | > 100 µM (inactive) | > 100 µM (inactive) | > 100 µM (inactive) | > 100 µM (inactive) | > 100 µM (inactive) | > 100 µM (inactive) | > 100 µM (inactive) | 79.6 µM (inactive) | > 100 µM (inactive) | > 100 µM (inactive) | > 100 µM (inactive) | > 100 µM (inactive) | > 100 µM (inactive) | > 100 µM (inactive) | > 100 µM (inactive) | > 100 µM (inactive) |  | > 100 µM (inactive)
12 | O=c1c2ccccc2nc(-c2cc3c(cc2Cl)Sc2nccn2S3(=O)=O)n1-c1ccccc1 |  | > 100 µM (inactive) | 22.9 µM (inactive) | 42.6 µM (inactive) | 18.8 µM (inactive) | > 100 µM (inactive) | 19.1 µM (inactive) | > 100 µM (inactive) | 12.3 µM (inactive) | 12.9 µM (inactive) | 18.8 µM (inactive) | 21.6 µM (inactive) | 20.4 µM (inactive) | 45.5 µM (inactive) | 21.4 µM (inactive) | 67.6 µM (inactive) | 8.93 µM (inactive) | 21.5 µM (inactive) | 15.1 µM (inactive) | 62.5 µM (inactive)
13 | C[C@]12CC[C@@H]3c4ccc(OCC(=O)O)cc4CC[C@H]3[C@@H]1CCC2=O | > 100 µM (inactive) | > 100 µM (inactive) | > 100 µM (inactive) | > 100 µM (inactive) |  | 15.1 µM (inactive) | > 100 µM (inactive) | > 100 µM (inactive) | > 100 µM (inactive) | > 100 µM (inactive) | > 100 µM (inactive) | > 100 µM (inactive) | > 100 µM (inactive) | > 100 µM (inactive) | > 100 µM (inactive) | > 100 µM (inactive) | > 100 µM (inactive) | > 100 µM (inactive) |  | > 100 µM (inactive)
14 | CCOC(=O)Cn1c(=O)c2nc(SC)sc2n(-c2ccccc2)c1=S |  | 42.1 µM (inactive) | 4.8 µM (inactive) | 3.05 µM (inactive) | > 100 µM (inactive) | > 100 µM (inactive) | 36.7 µM (inactive) | 93.3 µM (inactive) | 43.9 µM (inactive) | > 100 µM (inactive) | 21 µM (inactive) | 32.5 µM (inactive) | 15.6 µM (inactive) | 35.9 µM (inactive) | 4.1 µM (inactive) | > 100 µM (inactive) | 40.8 µM (inactive) | 30.3 µM (inactive) | 40 µM (inactive) | 36.5 µM (inactive)
15 | Cc1c(-c2ccccc2)[nH]n(C2=NCCN2)c1=O | > 100 µM (inactive) | > 100 µM (inactive) | > 100 µM (inactive) | 67.8 µM (inactive) | > 100 µM (inactive) | > 100 µM (inactive) | > 100 µM (inactive) | > 100 µM (inactive) | > 100 µM (inactive) | > 100 µM (inactive) | > 100 µM (inactive) | > 100 µM (inactive) | > 100 µM (inactive) |  | 30.4 µM (inactive) | > 100 µM (inactive) | > 100 µM (inactive) | > 100 µM (inactive) |  | > 100 µM (inactive)
